The values that follow come from patent US10336748B2, “Methyoxy-substituted pyrrolopyridine modulators of RORC2 and methods of use thereof” (Pfizer Inc., priority 2015, dated 2019).

The subject of test [1] is human Th17 cells. Kind of test: IL-17 production from human Th17 cells. Type of test: cell-based. Conditions: 144 h; IL-17A in supernatant by ELISA (MSD) after 6 days, human CD4+ T cells, anti-CD3 + anti-CD28 + cytokine cocktail. The method, then:
The activity of compound of the invention can be also be determined by an IL-17 production from human Th17 cells assay. In general, this assay measures blockade of IL-17 production, the signature cytokine of T helper 17 (Th17) cells, by compounds. Purified human CD4+ T cells are stimulated with anti-CD3+anti-CD28 and incubated with a cytokine cocktail that induce their differentiation into Th17 in the absence or presence of various concentrations of compound. After 6 days, IL-17A concentration is measured in the cell culture supernatant with an ELISA kit (MSD).
Preparation of human CD4+ T cells. CD4+ T cells were purified from buffy coats from healthy donors (obtained from Massachusetts General Hospital) by negative selection the following procedure: Mixing 25 mL of blood with 1 mL of Rosette Sep CD4+ T cell enrichment cocktail (StemCell Technologies) followed by application of a layer of 14 mL Ficoll Paque Plus (Amersham GE Healthcare) and subsequent centrifugation at 1200 g for 20 min at room temperature. The Ficoll layer was then harvested and washed with phosphate saline buffer containing 2% (v/v) fetal bovine serum and cells were resuspended with RPMI medium containing 10% (v/v) fetal bovine serum and 10% (v/v) DMSO, frozen and kept in LN2 until used.
On the first day of the assay, a vial containing 10^7 CD4+ T cells is thawed rapidly in 37° C. water bath, immediately transferred into 20 mL X-Vivo 15 medium (Lonza), is spun for 6 min at 300×g, the supernatant is discarded, and the resulting pellet is re-suspended at 10^6 cells/mL in […] fresh X-Vivo 15 medium, followed by storage overnight in a tissue culture vessel in a humidified chamber at 37° C. and 5% CO2. Serial dilutions of compounds of the invention are prepared at 10× final concentration in X-Vivo15 medium containing 3% (v/v) DMSO.
On the second day of the assay, a 384-well tissue culture plate was coated with 10 μg/mL anti-hCD3 (eBioscience) at 50 μL/well. After 2 hr at 37° C., the supernatant is discarded and the coated plates are kept in a sterile tissue culture hood.
Cytokine plus anti-CD28 cocktail is prepared by mixing 25 ng/mL hIL-6 (Peprotech), 5 ng/mL hTGFbeta1 (Peprotech), 12.5 ng/mL IL-1beta (Peprotech), 25 ng/mL hIL-21, 25 ng/mL hIL-23 (R&D Systems), and 1 ug/mL anti-hCD28 (eBioscience) in X-Vivo 15 medium. The cytokine plus anti-CD28 cocktail with CD4+ cells is prepared such that the cocktail is diluted 10-fold and cell density is 0.22×10^6/mL. The mixture is incubated 1 hr at 37° C.
90 μL (20,000 cells) dispensed per well in the anti-hCD3 coated plate prepared as noted above.
10 μL 10× compound is added per well (final DMSO=0.3%) from the compound plate that was previously prepared, followed by 6 days of incubation in a tissue culture vessel in a humidified chamber at 37° C. and 5% CO2.
On day six of the assay, production of IL-17A in 10 μL of the supernatant is determined by sandwich ELISA using 384w hIL17 MSD plates following the manufacturer's protocol. Measurement is carried out in a Sector Imager 6000 by the same manufacturer. Signal units from the instrument are converted to pg/mL using a calibration curve with known amounts of IL-17A. IC50 values of test compounds (Table 2) are determined by the non-linear regression analysis of dose response curves.
In general terms: An ELISA detects its analyte on a solid surface through an enzyme-linked reagent.

Test [2] deals with T1, RORC2 ligand binding domain (6-His-RORC2 LBD) (Homo sapiens, UniProt P51449).
T1 construct: made in house; host or cells: E. coli
T1 sequence (P51449 269-508 limits assumed): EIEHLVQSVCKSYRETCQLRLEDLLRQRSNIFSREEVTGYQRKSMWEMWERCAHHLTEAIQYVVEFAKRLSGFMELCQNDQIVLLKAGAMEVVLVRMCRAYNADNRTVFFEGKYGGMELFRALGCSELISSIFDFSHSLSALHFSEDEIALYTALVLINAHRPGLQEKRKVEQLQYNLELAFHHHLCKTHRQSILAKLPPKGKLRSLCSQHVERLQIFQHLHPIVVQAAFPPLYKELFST
Description: Co-activator recruitment by TR-FRET. Format: biochemical. As to conditions: 6.3 nM RORC2 LBD, 200 nM SRC1-2 coactivator peptide, 3 hr room temperature. The text has this: The activity of compound of the invention can be determined by a co-activator recruitment by TR-FRET (time-resolved fluorescence resonance energy transfer) assay. In general, the assay is based on the interaction between N-terminally Six-Histidine-tagged-RORC2 ligand binding domain (6-His-RORC2 LBD), expressed in E. coli and purified by affinity chromatography, and biotin-coactivator peptide SRC1-2 (biotin-aminohexanoic acid-[…]-NH2; SEQ ID NO: 1) containing the LXXLL consensus domain which is responsible for receptor binding. This interaction is detected by addition of Europium labeled-anti-His antibody (Ex. 337 nm, Em. 620 nm, which binds to 6His) and Streptavidin-APC (Ex. 620 nm, Em. 665 nm, which binds to biotin). When receptor and coactivator are bound to each other, upon shining light at 337 nm on the sample, the Europium emits fluorescence that excites APC due to close proximity (FRET) and this signal is measured at 665 nm. Due to the long lasting fluorescence emission of Europium, the non-specific, short-lived fluorescence is time-resolved (TR) from the fluorescence of interest. Inhibitors of the interaction of receptor and coactivator peptide are detected by a decrease in TR-FRET signal.
Specifically, in one embodiment the aforementioned assay was performed as outlined below. The assay was carried out in black polystyrene. 384-well plates in a total assay volume of 50.5 μL. The assay buffer contained 50 mM TRIS-HCL pH 7.5, 1 mM NaCl, 2 mM MgCl2, 0.5 mg/mL bovine serum albumin, and 5 mM dithiothreitol. The final concentration of reagents was 6.3 nM RORC2 LBD, 200 nM SRC1-2, 50 nM streptavidin APC, 1 nM Europium-labeled anti-His antibody, and varying concentrations of compounds such that final concentration of DMSO is 1% (v/v). The assay steps were: (1) dispensing […] compound at 100× final concentration in DMSO (test wells) or DMSO only (control wells for no inhibition); and (2) dispensing 50 μL mixture of the other assay components including receptor (test wells) or excluding receptor (control wells for maximal inhibition).
Assay mixtures were incubated are room temperature for 3 hr and read in EnVision 2100 Multilabel Reader (PerkinElmer Life Sciences) at Excitation Filter 320, Emission Europium Filter 615, Emission APC Filter 665, Dichroic Mirror D400/D630.
TR-FRET signal was determined by calculating the ratio of 665 nm by 615 nm and […] values of compounds of the invention (Table 1) were determined by the non-linear regression analysis of dose response curves.
On the technique in general: TR-FRET usually uses a lanthanide donor and a delayed reading to cut background.

SMILES strings stand for the structures.

As usually defined, the IC50 is the concentration that inhibits the measured activity by half.

Regarding `COc1c(NC(=O)c2cccc(C#N)c2)cnc2c1c([C@@H]1CCN(C(=O)C3CC(C)(C)C3)C(C)(C)C1)cn2C` [Example 33, (R)-3-cyano-N-(3-(1-(3,3-dimethylcyclobutane-1-carbonyl)-2,2-dimethylpiperidin-4-yl)-4-methoxy-1-methyl-1H-pyrrolo[2,3-b]pyridin-5-yl)benzamide], the values for the IC50 in test [1] and in test [2] were 15.6 nM and 8.5 nM, respectively.

`COc1c(NC(=O)c2cccc(C#N)c2)cnc2c1c(C1CCN(C(=O)[C@@H](C)C(C)(C)C)CC1)cn2C` [Example 15, (S)-3-cyano-N-(4-methoxy-1-methyl-3-(1-(2,3,3-trimethylbutanoyl)piperidin-4-yl)-1H-pyrrolo[2,3-b]pyridin-5-yl)benzamide]: the 50% inhibitory concentration (IC50) in test [1] is 23.5 nM; in test [2] it was 8.6 nM.

With `COc1c(NC(=O)c2cccc(C#N)c2)cnc2c1c([C@@H]1CCN(C(=O)C3CCCCC3)C(C)(C)C1)cn2C` [Example 27, (R)-3-cyano-N-(3-(1-(cyclohexanecarbonyl)-2,2-dimethylpiperidin-4-yl)-4-methoxy-1-methyl-1H-pyrrolo[2,3-b]pyridin-5-yl)benzamide], the IC50 in test [1] was 11.3 nM; in test [2], 4.8 nM.

For the compound `COc1ccc(C(=O)Nc2cnc3c(c([C@@H]4CCN(C(=O)C5CCCCC5)C(C)(C)C4)cn3C)c2OC)cc1C#N` [Example 32, (R)-3-cyano-N-(3-(1-(cyclohexanecarbonyl)-2,2-dimethylpiperidin-4-yl)-4-methoxy-1-methyl-1H-pyrrolo[2,3-b]pyridin-5-yl)-4-methoxybenzamide], the IC50 in test [1] stood at 11 nM; in test [2], 5.8 nM.

Consider `COc1ccc(C(=O)Nc2cnc3c(c([C@@H]4CCN(C(=O)C5CCCC5)C[C@@H]4C)cn3C)c2OC)cc1C#N` [Example 25, 3-cyano-N-(3-((3R,4R)-1-(cyclopentanecarbonyl)-3-methylpiperidin-4-yl)-4-methoxy-1-methyl-1H-pyrrolo[2,3-b]pyridin-5-yl)-4-methoxybenzamide], for which the IC50 in test [1] is 12 nM; in test [2], 10.1 nM.

In the case of `COc1ccc(C(=O)Nc2cnc3c(c([C@@H]4CCN(C(=O)C5CCCC5)C(C)(C)C4)cn3C)c2OC)cc1C#N` [Example 30, (R)-3-cyano-N-(3-(1-(cyclopentanecarbonyl)-2,2-dimethylpiperidin-4-yl)-4-methoxy-1-methyl-1H-pyrrolo[2,3-b]pyridin-5-yl)-4-methoxybenzamide], the IC50 in test [1] is 6.7 nM; in test [2], 13.5 nM.

For the compound `COc1c(NC(=O)c2cccc(C#N)c2)cnc2c1c(C1CCN(C(=O)C3CCCC3)CC1)cn2C` [Example 8, 3-cyano-N-(3-(1-(cyclopentanecarbonyl)piperidin-4-yl)-4-methoxy-1-methyl-1H-pyrrolo[2,3-b]pyridin-5-yl)benzamide], the IC50 in test [1] stood at 29.8 nM; in test [2], 11.8 nM.

`COc1ccc(C(=O)Nc2cnc3c(c([C@@H]4CCN(C(=O)C(C)C)C(C)(C)C4)cn3C)c2OC)cc1C#N` [Example 29, (R)-3-cyano-N-(3-(1-isobutyryl-2,2-dimethylpiperidin-4-yl)-4-methoxy-1-methyl-1H-pyrrolo[2,3-b]pyridin-5-yl)-4-methoxybenzamide]: the IC50 amounted to 8.9 nM in test [1] and 8.1 nM in test [2].

`COc1cc(C#N)cc(C(=O)Nc2cnc3c(c(C4CCN(C(=O)C5CCCC5)CC4)cn3C)c2OC)c1` [Example 12, 3-cyano-N-(3-(1-(cyclopentanecarbonyl)piperidin-4-yl)-4-methoxy-1-methyl-1H-pyrrolo[2,3-b]pyridin-5-yl)-5-methoxybenzamide]: the IC50 in test [1] was found to be 59.8 nM; in test [2], 20.2 nM.

With `COc1c(NC(=O)c2cccc(C#N)c2)cnc2c1c(C1CCN(C(=O)[C@H](C)C(C)(C)C)CC1)cn2C` [Example 5, (R)-3-cyano-N-(4-methoxy-1-methyl-3-(1-(2,3,3-trimethylbutanoyl)piperidin-4-yl)-1H-pyrrolo[2,3-b]pyridin-5-yl)benzamide], the IC50 in test [1] stood at 10.6 nM; in test [2], 6.1 nM.

Take `COc1c(NC(=O)c2ccc(F)c(C#N)c2)cnc2c1c(C1CCN(C(=O)C3CCCC3)CC1)cn2C` [Example 10, 3-cyano-N-(3-(1-(cyclopentanecarbonyl)piperidin-4-yl)-4-methoxy-1-methyl-1H-pyrrolo[2,3-b]pyridin-5-yl)-4-fluorobenzamide]: the IC50 in test [1] was 106 nM; in test [2], 29.2 nM.

Regarding `COc1c(NC(=O)c2cccc(C#N)c2)cnc2c1c(C1CCN(C(=O)C3CCCC3)C[C@@H]1C)cn2C` (stereo partly drawn) [Example 24, 3-cyano-N-(3-((3R,4R)-1-(cyclopentanecarbonyl)-3-methylpiperdin-4-yl)-4-methoxy-1-methyl-1H-pyrrolo[2,3-b]pyridin-5-yl)benzamide], the IC50 is 25 nM in test [1] and 10.2 nM in test [2].

Turning to `COc1c(NC(=O)c2cccc(C#N)c2)cnc2c1c(C1CCN(C(=O)[C@@H](C)C(C)C)CC1)cn2C` [Example 14, (S)-3-cyano-N-(3-(1-(2,3-dimethylbutanoyl)piperidin-4-yl)-4-methoxy-1-methyl-1H-pyrrolo[2,3-b]pyridin-5-yl)benzamide], the IC50 came out at 42.1 nM in test [1] and 14.2 nM in test [2].

Take `COc1ccc(C(=O)Nc2cnc3c(c(C4CCN(C(=O)[C@@H](C)C(C)(C)C)CC4)cn3C)c2OC)cc1C#N` [Example 3, (S)-3-cyano-4-methoxy-N-(4-methoxy-1-methyl-3-(1-(2,3,3-trimethylbutanoyl)piperidin-4-yl)-1H-pyrrolo[2,3-b]pyridin-5-yl)benzamide]: the IC50 in test [1] is 6.4 nM; in test [2] it was 4.6 nM.
